This assay concerns the target human PDHK2 (hPDHK2) (Homo sapiens (Human), UniProt Q15119). As to the kind of experiment: Inhibitory action of PDHK activity in vitro (kinase reaction, residual PDH activity measured). It counts as biochemical.
The mark [1] stands for this setting: PDHK inhibitory activity, class symbol of IC50.
Setting [2] is: read-out: PDHK inhibitory activity IC50.

Like-named read-outs stand apart in the source and are kept apart here.

One may read the IC50 as the concentration at which inhibition is half-maximal. As for `Cn1nnc(-c2cccc3c2-c2ccccc2C3(O)C(F)(F)F)n1` (centres unmarked) [compound 250], the IC50 by setting is: under setting [1], above 1000 nM; under setting [2], 1610 nM.
`Cn1nnnc1-c1cccc2c1-c1ccccc1C2(O)C(F)(F)F` (centres unmarked) [compound 251]: the IC50 is above 1000 nM under setting [1] and above 10000 nM under setting [2].
As to `OC1(C(F)(F)F)c2ccccc2-c2ccc(/C=C/c3ccccc3)cc21` (centres unmarked) [compound 252], the IC50 under setting [1] is above 1000 nM and the IC50 under setting [2] came to 1270 nM.
For `OC1(C(F)(F)F)c2ccccc2-c2ccc(OCC3CCCCC3)cc21` (centres unmarked) [compound 253], in that order: above 1000 nM and 1950 nM.
Taken in the same sequence, the figures for `OC1(C(F)(F)F)c2ccccc2-c2ccc(OCC3CCCC3)cc21` (centres unmarked) [compound 254] were above 1000 nM and 1130 nM.
For the molecule `OC1(C(F)(F)F)c2ccccc2-c2ccc(OCC3CCC3)cc21` (centres unmarked) [compound 255], the IC50 is, setting by setting: under setting [1], above 1000 nM; under setting [2], 1080 nM.
Taken in the same sequence, the figures for `OC1(C(F)(F)F)c2ccccc2-c2ccc(OCC3CC3)cc21` (centres unmarked) [compound 256] were above 1000 nM and 1000 nM.
For `CCOC(=O)CCCOc1ccc2c(c1)C(O)(C(F)(F)F)c1ccccc1-2` (centres unmarked) [compound 257], in that order: 100 to 1000 nM and 567 nM.
For the molecule `O=C(O)CCCOc1ccc2c(c1)C(O)(C(F)(F)F)c1ccccc1-2` (centres unmarked) [compound 258], the IC50 under setting [1] is above 1000 nM and the IC50 under setting [2] is 2620 nM.
On to `OC1(C(F)(F)F)c2ccccc2-c2ccc(OC3CCCC3)cc21` (centres unmarked) [compound 259], for which the IC50 under setting [1] was above 1000 nM and the IC50 under setting [2] was found to be 1390 nM.
On to `OC1(C(F)(F)F)c2ccccc2-c2ccc(OC3CCCCC3)cc21` (centres unmarked) [compound 260], for which the IC50 by setting is: under setting [1], above 1000 nM; under setting [2], 2810 nM.
Taken in the same sequence, the figures for `OC1(C(F)(F)F)c2ccccc2-c2ccc(OCc3cccs3)cc21` (centres unmarked) [compound 261] were above 1000 nM and 1400 nM.
For `OC1(C(F)(F)F)c2ccccc2-c2ccc(OCc3ccccc3)cc21` (centres unmarked) [compound 262], in that order: above 1000 nM and 1360 nM.
As to `Cn1cc(-c2cccc3c2-c2ccccc2C3(O)C(F)(F)F)cn1` (centres unmarked) [compound 263], the IC50 is 100 to 1000 nM under setting [1] and 133 nM under setting [2].
As for `CC(C)COc1ccc2c(c1)C(O)(C(F)(F)F)c1ccccc1-2` (centres unmarked) [compound 264], the IC50 reads like this: under setting [1], above 1000 nM; under setting [2], 1170 nM.
As for `CCCOc1ccc2c(c1)C(O)(C(F)(F)F)c1ccccc1-2` (centres unmarked) [compound 265], the half-maximal inhibitory concentration (IC50) reads like this: under setting [1], above 1000 nM; under setting [2], 1260 nM.
Take `OC1(C(F)(F)F)c2ccccc2-c2ccc(-c3cc(Cl)cc(Cl)c3)cc21` (centres unmarked) [compound 266]: the IC50 is above 1000 nM under setting [1] and 1560 nM under setting [2].
As to `Cc1nnc(-c2cccc3c2-c2ccccc2C3(O)C(F)(F)F)o1` (centres unmarked) [compound 267], the IC50 is, setting by setting: under setting [1], above 1000 nM; under setting [2], 1200 nM.
Taken in the same sequence, the figures for `OC1(C(F)(F)F)c2ccccc2-c2c(C3CC3)cccc21` (centres unmarked) [compound 268] were above 1000 nM and above 10000 nM.
On to `CC1CCN(c2ccc3c(c2)C(O)(C(F)(F)F)c2ccccc2-3)C1` (centres unmarked) [compound 269], for which the IC50 is above 1000 nM under setting [1] and 1340 nM under setting [2].
For `OCCCCOc1ccc2c(c1)C(O)(C(F)(F)F)c1ccccc1-2` (centres unmarked) [compound 270], in that order: 100 to 1000 nM and 533 nM.
Taken in the same sequence, the figures for `CC(C)(C)C(=O)N1CCN(c2cc(Cl)c3c(c2)C(O)(C(F)(F)F)c2ccccc2-3)CC1` (centres unmarked) [compound 271] were below 100 nM and 56 nM.
Taken in the same sequence, the figures for `OC1(C(F)(F)F)c2ccccc2-c2c(Br)cc(Cl)cc21` (centres unmarked) [compound 272] were 100 to 1000 nM and 342 nM.
As for `Cc1ccc(-c2cccc3c2-c2ccccc2C3(O)C(F)(F)F)cn1` (centres unmarked) [compound 273], the IC50 is, setting by setting: under setting [1], 100 to 1000 nM; under setting [2], 396 nM.
Taken in the same sequence, the figures for `Cc1nc(-c2cccc3c2-c2ccccc2C3(O)C(F)(F)F)no1` (centres unmarked) [compound 274] were above 1000 nM and 7490 nM.
For `Cc1ncc(-c2cccc3c2-c2ccccc2C3(O)C(F)(F)F)o1` (centres unmarked) [compound 275], in that order: 100 to 1000 nM and 278 nM.
Take `CC(C)CCOc1ccc2c(c1)C(O)(C(F)(F)F)c1ccccc1-2` (centres unmarked) [compound 276]: the IC50 reads like this: under setting [1], above 1000 nM; under setting [2], 1010 nM.
Taken in the same sequence, the figures for `OC1(C(F)(F)F)c2ccccc2-c2c(-c3cn[nH]c3)cccc21` (centres unmarked) [compound 277] were 100 to 1000 nM and 125 nM.
With `CCCCCOc1ccc2c(c1)C(O)(C(F)(F)F)c1ccccc1-2` (centres unmarked) [compound 278], the IC50 reads like this: under setting [1], 100 to 1000 nM; under setting [2], 862 nM.
Take `CC(C)(C)COc1ccc2c(c1)C(O)(C(F)(F)F)c1ccccc1-2` (centres unmarked) [compound 279]: the IC50 is, setting by setting: under setting [1], above 1000 nM; under setting [2], 1850 nM.
Take `NC(=O)CCCOc1ccc2c(c1)C(O)(C(F)(F)F)c1ccccc1-2` (centres unmarked) [compound 280]: the IC50 is above 1000 nM under setting [1] and 1510 nM under setting [2].
Taken in the same sequence, the figures for `CNC(=O)CCCOc1ccc2c(c1)C(O)(C(F)(F)F)c1ccccc1-2` (centres unmarked) [compound 281] were above 1000 nM and 1000 nM.
For `CN(C)C(=O)CCCOc1ccc2c(c1)C(O)(C(F)(F)F)c1ccccc1-2` (centres unmarked) [compound 282], in that order: 100 to 1000 nM and 226 nM.
For `CCOC(=O)CCCCOc1ccc2c(c1)C(O)(C(F)(F)F)c1ccccc1-2` (centres unmarked) [compound 283], in that order: 100 to 1000 nM and 571 nM.
Consider `OCCCOc1ccc2c(c1)C(O)(C(F)(F)F)c1ccccc1-2` (centres unmarked) [compound 284], for which the IC50 is, setting by setting: under setting [1], above 1000 nM; under setting [2], 1170 nM.
In the case of `CC(C)(C)C(=O)N1CCN(c2cc(-c3cccnc3)c3c(c2)C(O)(C(F)(F)F)c2ccccc2-3)CC1` (centres unmarked) [compound 285], the IC50 is below 100 nM under setting [1] and 20 nM under setting [2].
Taken in the same sequence, the figures for `Cn1cc(-c2cc(Cl)cc3c2-c2ccccc2C3(O)C(F)(F)F)cn1` (centres unmarked) [compound 286] were below 100 nM and 17 nM.
Taken in the same sequence, the figures for `O=C(O)COc1ccc2c(c1)C(O)(C(F)(F)F)c1ccccc1-2` (centres unmarked) [compound 287] were above 1000 nM and above 10000 nM.
For `NC(=O)COc1ccc2c(c1)C(O)(C(F)(F)F)c1ccccc1-2` (centres unmarked) [compound 288], in that order: 100 to 1000 nM and 635 nM.
`CNC(=O)COc1ccc2c(c1)C(O)(C(F)(F)F)c1ccccc1-2` (centres unmarked) [compound 289]: the IC50 under setting [1] fell in the range of 100 to 1000 nM and the IC50 under setting [2] was 641 nM.
Regarding `CN(C)C(=O)COc1ccc2c(c1)C(O)(C(F)(F)F)c1ccccc1-2` (centres unmarked) [compound 290], the IC50 is 100 to 1000 nM under setting [1] and 793 nM under setting [2].
Taken in the same sequence, the figures for `O=C(O)CCOc1ccc2c(c1)C(O)(C(F)(F)F)c1ccccc1-2` (centres unmarked) [compound 291] were above 1000 nM and 5830 nM.
Take `OCCOc1ccc2c(c1)C(O)(C(F)(F)F)c1ccccc1-2` (centres unmarked) [compound 292]: the half-maximal inhibitory concentration (IC50) under setting [1] was above 1000 nM and the IC50 under setting [2] came to 2570 nM.
Regarding `CC1CCCN1c1ccc2c(c1)C(O)(C(F)(F)F)c1ccccc1-2` (centres unmarked) [compound 293], the IC50 is, setting by setting: under setting [1], above 1000 nM; under setting [2], 4950 nM.
Take `CCCCCCOc1ccc2c(c1)C(O)(C(F)(F)F)c1ccccc1-2` (centres unmarked) [compound 294]: the IC50 reads like this: under setting [1], 100 to 1000 nM; under setting [2], 710 nM.
For `O=C(O)CCCCOc1ccc2c(c1)C(O)(C(F)(F)F)c1ccccc1-2` (centres unmarked) [compound 295], in that order: 100 to 1000 nM and 861 nM.
For `OCCCCCOc1ccc2c(c1)C(O)(C(F)(F)F)c1ccccc1-2` (centres unmarked) [compound 296], in that order: 100 to 1000 nM and 180 nM.
As for `CN(CCO)C(=O)c1ccc2c(c1)C(O)(C(F)(F)F)c1ccccc1-2` (centres unmarked) [compound 297], the IC50 is, setting by setting: under setting [1], above 1000 nM; under setting [2], 3030 nM.
For the molecule `OCCCCCCOc1ccc2c(c1)C(O)(C(F)(F)F)c1ccccc1-2` (centres unmarked) [compound 298], the IC50 was 100 to 1000 nM under setting [1] and 177 nM under setting [2].
With `CN(C)C(=O)CCCCOc1ccc2c(c1)C(O)(C(F)(F)F)c1ccccc1-2` (centres unmarked) [compound 299], the IC50 reads like this: under setting [1], 100 to 1000 nM; under setting [2], 235 nM.
Taken in the same sequence, the figures for `OC1(C(F)(F)F)c2ccccc2-c2c(-c3cncnc3)cccc21` (centres unmarked) [compound 300] were 100 to 1000 nM and 114 nM.
Taken in the same sequence, the figures for `NC(=O)CCOc1ccc2c(c1)C(O)(C(F)(F)F)c1ccccc1-2` (centres unmarked) [compound 301] were above 1000 nM and 1590 nM.
With `CNC(=O)CCOc1ccc2c(c1)C(O)(C(F)(F)F)c1ccccc1-2` (centres unmarked) [compound 302], the IC50 reads like this: under setting [1], above 1000 nM; under setting [2], 1170 nM.
As to `CN(C)C(=O)CCOc1ccc2c(c1)C(O)(C(F)(F)F)c1ccccc1-2` (centres unmarked) [compound 303], the half-inhibitory concentration (IC50) under setting [1] is 100 to 1000 nM and the IC50 under setting [2] was 755 nM.
In the case of `COC(=O)C1CCN1C(=O)c1ccc2c(c1)C(O)(C(F)(F)F)c1ccccc1-2` (centres unmarked) [compound 304], the IC50 by setting is: under setting [1], 100 to 1000 nM; under setting [2], 723 nM.
For `CNC(=O)CCCCOc1ccc2c(c1)C(O)(C(F)(F)F)c1ccccc1-2` (centres unmarked) [compound 305], in that order: 100 to 1000 nM and 562 nM.
For `NC(=O)CCCCOc1ccc2c(c1)C(O)(C(F)(F)F)c1ccccc1-2` (centres unmarked) [compound 306], in that order: 100 to 1000 nM and 453 nM.
For `CCCN(C)C(=O)c1ccc2c(c1)C(O)(C(F)(F)F)c1ccccc1-2` (centres unmarked) [compound 307], in that order: above 1000 nM and 3200 nM.
As for `CCCCN(C)C(=O)c1ccc2c(c1)C(O)(C(F)(F)F)c1ccccc1-2` (centres unmarked) [compound 308], the IC50 by setting is: under setting [1], above 1000 nM; under setting [2], 2670 nM.
For `OC1(C(F)(F)F)c2ccccc2-c2c(-c3ccsc3)cccc21` (centres unmarked) [compound 309], in that order: above 1000 nM and above 10000 nM.
Taken in the same sequence, the figures for `O=C(NCCO)c1ccc2c(c1)C(O)(C(F)(F)F)c1ccccc1-2` (centres unmarked) [compound 310] were above 1000 nM and above 10000 nM.

For the origin of these results see patent US8871934B2, “Fluorene compound and pharmaceutical use thereof” (Japan Tobacco Inc., priority 2008, dated 2014).
